Patent US10780090B2, “Heteroaryl compounds useful as inhibitors of SUMO activating enzyme” (Millennium Pharmaceuticals, Inc., priority 2014, dated 2020)

Target: recombinant human SAE enzyme (Homo sapiens (Human), UniProt Q9UBT2)
Test: SAE HTRF enzyme assay
Assay type: biochemical
Conditions: for Percent Inhibition: Concentration 0.111 μM; for IC50: class symbols A/B/C
Procedure, shortened: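 Sumoylation of Ubc9-GST by SAE was followed at low ATP (0.5 μM), pH 7.5, 24° C. for 105 min. Product was detected by HTRF with antibody pairs against Flag and GST tags.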

recombinant human SAE enzyme, sequence (Q9UBT2 whole entry): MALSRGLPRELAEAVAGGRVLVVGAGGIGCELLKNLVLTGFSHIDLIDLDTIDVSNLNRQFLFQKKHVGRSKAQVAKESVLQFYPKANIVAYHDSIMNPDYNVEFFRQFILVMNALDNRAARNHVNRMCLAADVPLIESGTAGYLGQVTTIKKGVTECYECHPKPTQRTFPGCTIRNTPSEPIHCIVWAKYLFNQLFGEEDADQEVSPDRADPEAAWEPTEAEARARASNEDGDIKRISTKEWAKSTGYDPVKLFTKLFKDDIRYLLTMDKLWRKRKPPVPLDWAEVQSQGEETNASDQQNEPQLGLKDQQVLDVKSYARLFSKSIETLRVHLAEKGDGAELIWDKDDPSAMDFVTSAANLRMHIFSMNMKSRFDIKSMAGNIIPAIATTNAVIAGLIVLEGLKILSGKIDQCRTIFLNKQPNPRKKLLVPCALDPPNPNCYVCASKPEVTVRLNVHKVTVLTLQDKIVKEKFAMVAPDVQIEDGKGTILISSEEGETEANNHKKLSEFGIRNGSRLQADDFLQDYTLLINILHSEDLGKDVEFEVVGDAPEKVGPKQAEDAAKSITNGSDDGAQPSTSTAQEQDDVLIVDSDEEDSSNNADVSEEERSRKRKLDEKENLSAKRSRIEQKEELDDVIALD
recombinant human SAE enzyme, sequence (Q9UBE0 whole entry partner): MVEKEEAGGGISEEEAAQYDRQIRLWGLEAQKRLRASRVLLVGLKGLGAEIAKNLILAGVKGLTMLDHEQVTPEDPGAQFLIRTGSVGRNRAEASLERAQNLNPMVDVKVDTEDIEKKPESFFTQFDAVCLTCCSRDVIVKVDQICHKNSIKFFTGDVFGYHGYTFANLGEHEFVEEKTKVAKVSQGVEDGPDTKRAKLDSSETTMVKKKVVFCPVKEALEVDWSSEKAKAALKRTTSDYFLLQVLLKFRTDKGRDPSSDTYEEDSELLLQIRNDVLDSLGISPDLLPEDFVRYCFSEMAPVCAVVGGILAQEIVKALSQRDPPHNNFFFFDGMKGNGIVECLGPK

For `NS(=O)(=O)OC[C@H]1C[C@@H](Nc2ncncc2C(=O)c2cc([C@@H]3NCCc4ccc(Cl)nc43)c(Cl)s2)C[C@@H]1O.NS(=O)(=O)OC[C@H]1C[C@@H](Nc2ncncc2C(=O)c2cc([C@H]3NCCc4ccc(Cl)nc43)c(Cl)s2)C[C@@H]1O` (mixture of isomers) [I-253, [(1R,2S,4R)-4-{[5-({5-chloro-4-[(8S)-2-chloro-5,6,7,8-tetrahydro-1,7-naphthyridin-8-yl]-2-thienyl}carbonyl)pyrimidin-4-yl]amino}-2-hydroxycyclopentyl]methyl sulfamate and [(1R,2S,4R)-4-{[5-({5-chloro-4-[(8R)-2-chloro-5,6,7,8-tetrahydro-1,7-naphthyridin-8-yl]-2-thienyl}carbonyl)pyrimidin-4-yl]amino}-2-hydroxycyclopentyl]methyl sulfamate], the “Percent Inhibition” value was 100 and the IC50 was under 10 nM.

For `NS(=O)(=O)OC[C@H]1C[C@@H](Nc2ncncc2C(=O)c2cc([C@@H]3OCCc4ccccc43)cs2)C[C@@H]1O.NS(=O)(=O)OC[C@H]1C[C@@H](Nc2ncncc2C(=O)c2cc([C@H]3OCCc4ccccc43)cs2)C[C@@H]1O` (mixture of isomers) [I-254, [(1R,2S,4R)-4-{[5-({4-[(1R)-3,4-dihydro-1H-isochromen-1-yl]-2-thienyl}carbonyl)pyrimidin-4-yl]amino}-2-hydroxycyclopentyl]methyl sulfamate and [(1R,2S,4R)-4-{[5-({4-[(1S)-3,4-dihydro-1H-isochromen-1-yl]-2-thienyl}carbonyl)pyrimidin-4-yl]amino}-2-hydroxycyclopentyl]methyl sulfamate], the “Percent Inhibition” value was 99 and the IC50 was under 10 nM.

`Cc1sc(C(=O)c2cncnc2NC2CC(O)C(COS(N)(=O)=O)C2)cc1C1OCCc2ccccc21` (mixture of isomers) [I-256, [(1R,2S,4R)-4-{[5-({4-[(1R)-3,4-dihydro-1H-isochromen-1-yl]-5-methyl-2-thienyl}carbonyl)pyrimidin-4-yl]amino}-2-hydroxycyclopentyl]methyl sulfamate and [(1R,2S,4R)-4-{[5-({4-[(1S)-3,4-dihydro-1H-isochromen-1-yl]-5-methyl-2-thienyl}carbonyl)pyrimidin-4-yl]amino}-2-hydroxycyclopentyl]methyl sulfamate] was tested, and the “Percent Inhibition” value was 100 and the IC50 was under 10 nM.

In the case of `Cc1sc(C(=O)c2cncnc2N[C@@H]2C[C@H](COS(N)(=O)=O)[C@@H](O)C2)cc1[C@@H]1OCCc2ccc(C(F)(F)F)cc21` (mixture of isomers) [I-258, [(1R,2S,4R)-2-hydroxy-4-{[5-({5-methyl-4-[(1R)-7-(trifluoromethyl)-3,4-dihydro-1H-isochromen-1-yl]-2-thienyl}carbonyl)pyrimidin-4-yl]amino}cyclopentyl]methyl sulfamate and [(1R,2S,4R)-2-hydroxy-4-{[5-({5-methyl-4-[(1S)-7-(trifluoromethyl)-3,4-dihydro-1H-isochromen-1-yl]-2-thienyl}carbonyl)pyrimidin-4-yl]amino}cyclopentyl]methyl sulfamate], the “Percent Inhibition” value is reported as 100 and the IC50 is reported as under 10 nM.

For `NS(=O)(=O)OC[C@H]1C[C@@H](Nc2ncncc2C(=O)c2cc([C@@H]3NCCc4ccc(Br)cc43)c(Cl)s2)[C@H](O)[C@@H]1O` (mixture of isomers) [I-259, [(1R,2R,3S,4R)-4-{[5-({4-[(1R)-7-bromo-1,2,3,4-tetrahydroisoquinolin-1-yl]-5-chloro-2-thienyl}carbonyl)pyrimidin-4-yl]amino}-2,3-dihydroxycyclopentyl]methyl sulfamate and [(1R,2R,3S,4R)-4-{[5-({4-[(1S)-7-bromo-1,2,3,4-tetrahydroisoquinolin-1-yl]-5-chloro-2-thienyl}carbonyl)pyrimidin-4-yl]amino}-2,3-dihydroxycyclopentyl]methyl sulfamate], the “Percent Inhibition” value was 99 and the IC50 was under 10 nM.

With `Cc1sc(C(=O)c2cncnc2N[C@@H]2C[C@H](COS(N)(=O)=O)[C@@H](O)C2)cc1[C@H]1OCC(F)(F)c2ccc(Cl)nc21` (mixture of isomers) [I-260, [(1R,2S,4R)-4-{[5-({4-[(8R)-2-chloro-5,5-difluoro-5,8-dihydro-6H-pyrano[3,4-b]pyridin-8-yl]-5-methyl-2-thienyl}carbonyl)pyrimidin-4-yl]amino}-2-hydroxycyclopentyl]methyl sulfamate and [(1R,2S,4R)-4-{[5-({4-[(8S)-2-chloro-5,5-difluoro-5,8-dihydro-6H-pyrano[3,4-b]pyridin-8-yl]-5-methyl-2-thienyl}carbonyl)pyrimidin-4-yl]amino}-2-hydroxycyclopentyl]methyl sulfamate] the “Percent Inhibition” value was 98 and the IC50 was under 10 nM.

With `NS(=O)(=O)OC[C@H]1C[C@@H](Nc2ncncc2C(=O)c2cc([C@H]3OCCc4ccc(Cl)cc43)cs2)C[C@@H]1O` (mixture of isomers) [I-261, [(1R,2S,4R)-4-{[5-({4-[(1R)-7-chloro-3,4-dihydro-1H-isochromen-1-yl]-2-thienyl}carbonyl)pyrimidin-4-yl]amino}-2-hydroxycyclopentyl]methyl sulfamate and [(1R,2S,4R)-4-{[5-({4-[(1S)-7-chloro-3,4-dihydro-1H-isochromen-1-yl]-2-thienyl}carbonyl)pyrimidin-4-yl]amino}-2-hydroxycyclopentyl]methyl sulfamate] the “Percent Inhibition” value was 99 and the IC50 was under 10 nM.

For `NS(=O)(=O)OC[C@H]1C[C@@H](Nc2ncncc2C(=O)c2cc([C@@H]3NCc4ccc(Cl)cc43)c(Cl)s2)C[C@@H]1O` (mixture of isomers) [I-262, [(1R,2S,4R)-4-{[5-({5-chloro-4-[(1R)-6-chloro-2,3-dihydro-1H-isoindol-1-yl]-2-thienyl}carbonyl)pyrimidin-4-yl]amino}-2-hydroxycyclopentyl]methyl sulfamate and [(1R,2S,4R)-4-{[5-({5-chloro-4-[(1S)-6-chloro-2,3-dihydro-1H-isoindol-1-yl]-2-thienyl}carbonyl)pyrimidin-4-yl]amino}-2-hydroxycyclopentyl]methyl sulfamate], the “Percent Inhibition” value was 100 and the IC50 was under 10 nM.

For `Cc1sc(C(=O)c2cncnc2N[C@@H]2C[C@H](COS(N)(=O)=O)[C@@H](O)[C@@H]2F)cc1[C@H]1OCCc2ccc(Cl)cc21` (mixture of isomers) [I-264, [(1R,2R,3R,4R)-4-{[5-({4-[(1S)-7-chloro-3,4-dihydro-1H-isochromen-1-yl]-5-methyl-2-thienyl}carbonyl)pyrimidin-4-yl]amino}-3-fluoro-2-hydroxycyclopentyl]methyl sulfamate and [(1R,2R,3R,4R)-4-{[5-({4-[(1R)-7-chloro-3,4-dihydro-1H-isochromen-1-yl]-5-methyl-2-thienyl}carbonyl)pyrimidin-4-yl]amino}-3-fluoro-2-hydroxycyclopentyl]methyl sulfamate], the “Percent Inhibition” value was 100 and the IC50 was under 10 nM.

With `CN1Cc2ccc(Cl)cc2[C@@H]1c1csc(C(=O)c2cncnc2N[C@@H]2C[C@H](COS(N)(=O)=O)[C@@H](O)C2)c1` (mixture of isomers) [I-265, [(1R,2S,4R)-4-{[5-({4-[(1R)-6-chloro-2-methyl-2,3-dihydro-1H-isoindol-1-yl]-2-thienyl}carbonyl)pyrimidin-4-yl]amino}-2-hydroxycyclopentyl]methyl sulfamate and [(1R,2S,4R)-4-{[5-({4-[(1S)-6-chloro-2-methyl-2,3-dihydro-1H-isoindol-1-yl]-2-thienyl}carbonyl)pyrimidin-4-yl]amino}-2-hydroxycyclopentyl]methyl sulfamate] the “Percent Inhibition” value was 97 and the IC50 was under 10 nM.

For `NS(=O)(=O)OC[C@H]1C[C@@H](Nc2ncncc2C(=O)c2cc([C@@H]3OCCc4ccc(Br)cc43)cs2)C[C@@H]1O.NS(=O)(=O)OC[C@H]1C[C@@H](Nc2ncncc2C(=O)c2cc([C@H]3OCCc4ccc(Br)cc43)cs2)C[C@@H]1O` (mixture of isomers) [I-268, [(1R,2S,4R)-4-{[5-({4-[(1R)-7-bromo-3,4-dihydro-1H-isochromen-1-yl]-2-thienyl}carbonyl)pyrimidin-4-yl]amino}-2-hydroxycyclopentyl]methyl sulfamate and [(1R,2S,4R)-4-{[5-({4-[(1S)-7-bromo-3,4-dihydro-1H-isochromen-1-yl]-2-thienyl}carbonyl)pyrimidin-4-yl]amino}-2-hydroxycyclopentyl]methyl sulfamate], the “Percent Inhibition” value was 100 and the IC50 was under 10 nM.

In the case of `Cc1sc(C(=O)c2cncnc2N[C@@H]2C[C@H](COS(N)(=O)=O)[C@@H](O)C2)cc1[C@@H]1OCCc2ccsc21` (mixture of isomers) [I-269, [(1R,2S,4R)-4-{[5-({4-[(7S)-4,7-dihydro-5H-thieno[2,3-c]pyran-7-yl]-5-methyl-2-thienyl}carbonyl)pyrimidin-4-yl]amino}-2-hydroxycyclopentyl]methyl sulfamate and [(1R,2S,4R)-4-{[5-({4-[(7R)-4,7-dihydro-5H-thieno[2,3-c]pyran-7-yl]-5-methyl-2-thienyl}carbonyl)pyrimidin-4-yl]amino}-2-hydroxycyclopentyl]methyl sulfamate], the “Percent Inhibition” value is reported as 99 and the IC50 is reported as under 10 nM.

In the case of `Cc1oc(C(=O)c2cncnc2N[C@@H]2C[C@H](COS(N)(=O)=O)[C@@H](O)C2)cc1[C@@H]1OCCc2ccc(Cl)cc21` (mixture of isomers) [I-270, {(1R,2S,4R)-4-[(5-{4-[(1R)-7-chloro-3,4-dihydro-1H-isochromen-1-yl]-5-methyl-2-furoyl}pyrimidin-4-yl)amino]-2-hydroxycyclopentyl}methyl sulfamate and {(1R,2S,4R)-4-[(5-{4-[(1S)-7-chloro-3,4-dihydro-1H-isochromen-1-yl]-5-methyl-2-furoyl}pyrimidin-4-yl)amino]-2-hydroxycyclopentyl}methyl sulfamate], the “Percent Inhibition” value is reported as 99 and the IC50 is reported as under 10 nM.
